{
  "source": "paper PMC2535826",
  "about": "“Cross-Species Differential Plasma Protein Binding of MBX-102/JNJ39659100: A Novel PPAR-γ Agonist” (PPAR Research, 2008)",
  "key": {"[1]": {"target": "T1, human PPAR-γ ligand-binding domain (Homo sapiens, UniProt P37231)", "T1 construct": "GST-PPARγ-LBD (5 nM), Tb-labeled anti-GST antibody (5 nM); purchased Invitrogen", "T1 sequence (P37231 238-503 limits assumed)": "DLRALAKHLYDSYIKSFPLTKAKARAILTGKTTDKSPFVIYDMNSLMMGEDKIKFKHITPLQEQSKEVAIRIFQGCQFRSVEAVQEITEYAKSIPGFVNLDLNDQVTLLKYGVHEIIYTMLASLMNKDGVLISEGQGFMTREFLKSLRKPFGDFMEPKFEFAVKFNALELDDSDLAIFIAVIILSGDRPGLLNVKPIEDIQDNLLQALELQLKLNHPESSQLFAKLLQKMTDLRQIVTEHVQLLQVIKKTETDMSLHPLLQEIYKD", "test": "Lanthascreen TR-FRET NCOR corepressor displacement assay", "format": "biochemical", "conditions": "for IC50: 3 experiments, mean ± SD, read-out: IC50 displacement of NCOR corepressor peptide", "description": "Assays were performed according to the manufacturer’s instructions. […] Life Science, Lowell, Mass, USA). […] The plate was covered and incubated for 4 hours at room temperature. The time resolved fluorescence resonance energy transfer (TR-FRET) signal was measured using a Pherastar fluorescence counter (BMG labtech, Offenburg, Germany). The ratio of the emission intensity of the acceptor (Fluorescein: λ = 520 nm) divided by the emission intensity of the donor (Tb: λ = 490 nm) was then calculated to determine the degree of NCOR binding. Each measurement was performed in quadruplicate."}, "[2]": {"test": "Plasma protein binding by equilibrium dialysis, human plasma", "format": "in vitro ADME", "conditions": "equilibrium dialysis vs PBS, 37°C, read-out: %Protein Binding ± SD (converted)", "description": "(§1) Radiolabeled MBX-102 acid was prepared as a 1 mL ethanol solution at a concentration of 50 μM (1 mCi total). […] Final solvent concentrations were 1% of the total volume. Plasma was stored at −20°C. Prior to use, it was thawed and spun at approximately 2000 rpm for 5 minutes to remove any precipitated material. The pH was adjusted to pH 7.4 by careful addition of NaH2PO4. A 1 mL sample of spiked plasma was prepared by direct dilution of [^3H]-MBX-102 acid stock solution into plasma and then added to one side of an equilibrium dialysis chamber. The other chamber was filled with 1 mL of 0.01 M phosphate buffered saline (PBS). The dialysis apparatus was placed in a water bath at 37°C and rotated at 20 rpm. […] Once equilibrium was established, the contents of the cell chambers were removed and analyzed by liquid scintillation counting. The chambers were sampled in triplicate. […] The recovery percentage was found not to vary with MBX-102 acid concentration."}, "[3]": {"test_system": "human, mouse, or rat PPAR-γ", "test": "PPAR-γ reporter gene assays comparing human, mouse and rat PPAR-γ (data not shown)", "format": "cell-based", "description": "For a pool sufficient to supply 100 wells, 6 million cells were diluted into medium for a total volume of 9 mL. The DNA-Lipofectamine 2000 mixture was prepared as per manufacturer’s instructions. For a pool sufficient to supply 100 wells, 5 μg Gal 4-Mouse PPAR-γ LBD, 5 μg pFR-Luciferase, and 500 ng Lac-z plasmids were mixed with 40 μL of Lipofectamine 2000 in Optimem medium in a total volume of 1 mL. The cell suspension was mixed with 1 mL of the DNA-Lipofectamine 2000 mixture. The mixture was plated into a 96-well plate and incubated for 4 hours at which time the transfection medium was removed and replaced with 100 μL DMEM, 10% (v/v) FBS and cultured overnight. The culture medium was then removed from the plates and replaced with 50 μL Pro293A medium. […] Measurement of luciferase and fluorescence activity was performed according to the manufacturer’s instructions. […] An 80 μL lysate aliquot was transferred to opaque white well plates and the luminescence measured. […] Each experimental condition was assessed in quadruplicate. The data were normalized for each well by dividing the luminescence measurement by the fluorescence measurement. Dose-response curves were generated and EC50 values were calculated using Prism Graphpad version 5.1."}, "rat and human plasma": {"test_system": "rat and human plasma", "test": "Competitive equilibrium dialysis, rat versus human plasma", "format": "in vitro ADME, Sprague-Dawley rat", "conditions": "37°C, n = 5", "description": "(§2) A comparison of the binding to plasma from different species was performed essentially by the method described below. Briefly, [^3H] MBX-102 acid spiked plasma samples were formulated as described above with the exception that pH was not adjusted to 7.4 and the final DMSO concentration was 0.6%. A 1 mL sample of spiked human plasma was applied to one side of the dialysis membrane and 1 mL of spiked animal plasma was applied to the other side. The samples were dialyzed by rotation at 20 rpm for up to 120 hours in a 37°C incubator. The ratio of free drug in plasma was calculated according to the equation: ratio of free drug (animal versus human) = (total cpm in human plasma)/(total cpm in animal plasma)."}, "mouse serum albumin": {"target": "T2, mouse serum albumin (Mus musculus, UniProt P07724)", "T2 construct": "purchased Sigma", "T2 sequence (P07724 25-608)": "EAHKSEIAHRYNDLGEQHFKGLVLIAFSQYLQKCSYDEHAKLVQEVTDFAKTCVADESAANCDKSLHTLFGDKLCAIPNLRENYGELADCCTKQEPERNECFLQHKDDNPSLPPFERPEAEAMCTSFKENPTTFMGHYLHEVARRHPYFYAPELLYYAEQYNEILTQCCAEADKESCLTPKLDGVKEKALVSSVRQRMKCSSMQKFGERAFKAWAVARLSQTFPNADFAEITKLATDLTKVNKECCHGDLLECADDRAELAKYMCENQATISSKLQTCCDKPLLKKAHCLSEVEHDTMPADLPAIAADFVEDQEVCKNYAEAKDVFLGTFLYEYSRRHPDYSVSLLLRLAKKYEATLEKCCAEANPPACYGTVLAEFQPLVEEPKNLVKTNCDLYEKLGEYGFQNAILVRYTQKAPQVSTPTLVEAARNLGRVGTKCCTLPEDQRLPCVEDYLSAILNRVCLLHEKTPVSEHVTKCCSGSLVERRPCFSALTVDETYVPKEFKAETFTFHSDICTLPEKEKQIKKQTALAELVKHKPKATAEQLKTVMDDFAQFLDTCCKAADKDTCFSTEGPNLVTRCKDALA", "test": "Albumin binding by surface plasmon resonance (SPR), MSA", "description": "The characterization of the binding of MBX-102 acid against human, mouse, and rat albumin was performed using SPR-based biosensors (Biosensor Tools, Salt Lake City, Utah, USA). The assay methods used to assess the binding of MBX-102 acid to human, mouse, and rat albumins have been described previously. Briefly, each albumin was immobilized onto a CM5 sensor chip using standard amine coupling. Immobilization densities were between 10 000 and 13 000 RU. […] Each of the 16 different concentrations was tested in duplicate. […] All binding data were collected at 37°C. The binding response profile of MBX-102 acid over the three different albumin surfaces was evaluated and the binding constants for the high-affinity site were determined using a two-independent-site model. Conversion from KD to %bound was performed as previously described."}, "mouse and human plasma": {"test_system": "mouse and human plasma", "test": "Competitive equilibrium dialysis, mouse versus human plasma", "format": "in vitro ADME, CD-1 mouse", "conditions": "37°C, n = 5", "description": "as §2"}, "[4]": {"test": "Plasma protein binding by equilibrium dialysis, rat plasma", "format": "in vitro ADME, Sprague Dawley rats", "conditions": "Sprague Dawley, equilibrium dialysis vs PBS, 37°C, read-out: %Protein Binding ± SD (converted)", "description": "as §1"}},
  "note": "Values joined by “and” are separate entries in the source; they are usually repeats but may differ in a detail not shown here. Equal values may be shown once. Read-outs that look alike come from different tables or passages of the source.",
  "data": [
    {"smiles": "O=C(O)[C@H](Oc1cccc(C(F)(F)F)c1)c1ccc(Cl)cc1", "note": "(stereo in doubt) [MBX-102 acid]", "values": [
      {"measurement": "IC50", "setting": "[1]; 0% serum", "value": "11 µM and 10.6 µM"},
      {"measurement": "IC50", "setting": "[1]; 10% (v/v) human serum", "value": "98.5 ± 6.6", "unit": "µM"},
      {"measurement": "IC50", "setting": "[1]; 40% (v/v) human serum", "value": "200 ± 6.4", "unit": "µM"},
      {"measurement": "IC50", "setting": "[1]; 40% (v/v) mouse serum", "value": "28.1 ± 2.6", "unit": "µM"},
      {"measurement": "IC50", "setting": "[1]; 40% (v/v) rat serum", "value": "57.9 ± 14.2", "unit": "µM"},
      {"measurement": "fold shift in the IC50", "setting": "[1]; 40% human serum versus no serum", "value": "≤ 19", "unit": "fold"},
      {"measurement": "FC, IC50 fold change human-to-mouse serum", "setting": "[1]; 40% serum", "value": "7 and 7.17"},
      {"measurement": "FC, IC50 fold change human-to-rat serum", "setting": "[1]; 40% serum", "value": "4 and 3.59"},
      {"measurement": "fraction unbound at 400 µM", "setting": "[2]; pH 7.4, MBX-102 acid 400 μM", "value": 0.002},
      {"measurement": "fraction unbound at 600 µM", "setting": "[2]; pH 7.4, MBX-102 acid 600 μM", "value": 0.002},
      {"measurement": "fraction unbound at 1000 µM", "setting": "[2]; pH 7.4, MBX-102 acid 1000 μM", "value": 0.003},
      {"measurement": "fraction unbound at 2000 µM", "setting": "[2]; pH 7.4, MBX-102 acid 2000 μM", "value": 0.002},
      {"measurement": "intrinsic differences in ability to activate human, mouse, or rat PPAR-γ", "setting": "[3]", "value": "no intrinsic differences"},
      {"measurement": "Free Fraction Ratio Rat:Human", "setting": "rat and human plasma; MBX-102 acid 100 μM", "value": "2.3 ± 0.6"},
      {"measurement": "Free Fraction Ratio Rat:Human", "setting": "rat and human plasma; MBX-102 acid 300 μM", "value": "2.3 ± 0.6"},
      {"measurement": "Free Fraction Ratio Rat:Human", "setting": "rat and human plasma; MBX-102 acid 700 μM", "value": "2.0 ± 0.3"},
      {"measurement": "Free Fraction Ratio Rat:Human", "setting": "rat and human plasma; MBX-102 acid 1000 μM", "value": "1.8 ± 0.2"},
      {"measurement": "Free Fraction Ratio Rat:Human", "setting": "rat and human plasma; MBX-102 acid 1300 μM", "value": "1.7 ± 0.2"},
      {"measurement": "%Bound", "setting": "mouse serum albumin; converted from KD", "value": 99.2, "unit": "%"},
      {"measurement": "Kd", "setting": "mouse serum albumin; high-affinity site, two-independent-site model, 37°C, pH 7.4", "value": 5.5, "unit": "µM"},
      {"measurement": "Free Fraction Ratio Mouse:Human", "setting": "mouse and human plasma; MBX-102 acid 100 μM", "value": "10.5 ± 5.5"},
      {"measurement": "Free Fraction Ratio Mouse:Human", "setting": "mouse and human plasma; MBX-102 acid 300 μM", "value": "5.9 ± 3.6"},
      {"measurement": "Free Fraction Ratio Mouse:Human", "setting": "mouse and human plasma; MBX-102 acid 700 μM", "value": "3.7 ± 1.9"},
      {"measurement": "Free Fraction Ratio Mouse:Human", "setting": "mouse and human plasma; MBX-102 acid 1000 μM", "value": "2.6 ± 1.1"},
      {"measurement": "Free Fraction Ratio Mouse:Human", "setting": "mouse and human plasma; MBX-102 acid 1300 μM", "value": "2.3 ± 0.7"},
      {"measurement": "fraction unbound at 400 µM", "setting": "[4]; pH 7.4, MBX-102 acid 400 μM", "value": 0.002},
      {"measurement": "fraction unbound at 600 µM", "setting": "[4]; pH 7.4, MBX-102 acid 600 μM", "value": 0.002}
    ]}
  ]
}
